Patent US11987586B1 (TAKEDA PHARMACEUTICAL COMPANY LIMITED, priority 2022, dated 2024)

Target: T1, human OX2 receptor (Homo sapiens, UniProt O43614)
T1 construct: expressed in transfected cells
T1 sequence (O43614 1-444): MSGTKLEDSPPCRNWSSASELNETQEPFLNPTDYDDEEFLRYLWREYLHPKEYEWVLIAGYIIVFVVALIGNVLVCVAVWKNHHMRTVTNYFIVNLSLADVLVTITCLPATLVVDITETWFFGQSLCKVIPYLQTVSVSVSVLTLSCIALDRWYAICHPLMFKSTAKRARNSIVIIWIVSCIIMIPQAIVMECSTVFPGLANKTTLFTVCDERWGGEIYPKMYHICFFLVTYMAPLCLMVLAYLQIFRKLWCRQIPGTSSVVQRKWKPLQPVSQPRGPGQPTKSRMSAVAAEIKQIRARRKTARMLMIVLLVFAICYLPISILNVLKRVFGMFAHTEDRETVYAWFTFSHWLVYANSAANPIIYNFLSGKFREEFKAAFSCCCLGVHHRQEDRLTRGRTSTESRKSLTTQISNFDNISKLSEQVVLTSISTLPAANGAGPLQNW
Assay: Measurement of orexin type 2 receptor agonist activity (calcium fluorescence, Fluo-4, FDSS)
Format: cell-based
Details: 3 uM test compound; CHO cells expressing human OX2 receptor; DMSO = 0%, 10 nM orexin A (human) = 100%
Procedure, shortened: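 CHO-K1 cells stably expressing human OX2 receptor (residues 1-444) were loaded with Fluo-4 AM plus probenecid. Calcium fluorescence after compound addition was recorded for 1 min 40 s. Activity (%) was scaled between DMSO (0%) and 10 nM orexin A final (100%).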

First: CCS(=O)(=O)N[C@@H]1Cn2c(cn(-c3noc4cc(C)cc(-c5c(F)cccc5F)c34)c2=O)C1(F)F [Example 156, N-{(6R)-2-[4-(2,6-difluorophenyl)-6-methyl-1,2-benzoxazol-3-yl]-7,7-difluoro-3-oxo-2,5,6,7-tetrahydro-3H-pyrrolo[1,2-c]imidazol-6-yl}ethanesulfonamide]
Second: Cc1cc(-c2c(F)cccc2F)c2c(-n3cc4n(c3=O)C[C@@H](NS(C)(=O)=O)C4(F)F)noc2c1 [Example 180, N-{(6R)-2-[4-(2,6-difluorophenyl)-6-methyl-1,2-benzoxazol-3-yl]-7,7-difluoro-3-oxo-2,5,6,7-tetrahydro-3H-pyrrolo[1,2-c]imidazol-6-yl}methanesulfonamide]
The “OX2R agonist activity (3 uM, %)” value of the first is higher: 102% for the first, 100% for the second.

Going from `CCS(=O)(=O)N[C@@H]1Cn2c(cn(-c3noc4cc(C(F)(F)F)cc(-c5c(F)cc(F)cc5F)c34)c2=O)C1(F)F` [Example 157, N-{(6R)-7,7-difluoro-3-oxo-2-[6-(trifluoromethyl)-4-(2,4,6-trifluorophenyl)-1,2-benzoxazol-3-yl]-2,5,6,7-tetrahydro-3H-pyrrolo[1,2-c]imidazol-6-yl}ethanesulfonamide] to `CCS(=O)(=O)N[C@@H]1Cn2c(cn(-c3noc4cc(C(F)F)cc(-c5c(F)cc(F)cc5F)c34)c2=O)C1(F)F` [Example 165, N-{(6R)-2-[6-(difluoromethyl)-4-(2,4,6-trifluorophenyl)-1,2-benzoxazol-3-yl]-7,7-difluoro-3-oxo-2,5,6,7-tetrahydro-3H-pyrrolo[1,2-c]imidazol-6-yl}ethanesulfonamide], the “OX2R agonist activity (3 uM, %)” value rises from 96% to 97%.

Compared with `CCOc1cc(-c2c(F)cc(F)cc2F)c2c(N3C[C@H]4N(C[C@@H](NS(C)(=O)=O)C4(F)F)C3=O)noc2c1` [Example 160, N-{(6R,7aR)-2-[6-ethoxy-4-(2,4,6-trifluorophenyl)-1,2-benzoxazol-3-yl]-7,7-difluoro-3-oxohexahydro-1H-pyrrolo[1,2-c]imidazol-6-yl}methanesulfonamide], `CS(=O)(=O)N[C@@H]1CN2C(=O)N(c3noc4cc(F)c(F)c(-c5c(F)cc(F)cc5F)c34)C[C@@H]2C1(F)F` [Example 171, N-{(6R,7aR)-2-[5,6-Difluoro-4-(2,4,6-trifluorophenyl)-1,2-benzoxazol-3-yl]-7,7-difluoro-3-oxohexahydro-1H-pyrrolo[1,2-c]imidazol-6-yl}methanesulfonamide] is higher in “OX2R agonist activity (3 uM, %)” value: 99% for the first, 100% for the second.

Compared with `CCS(=O)(=O)N[C@@H]1CN2C(=O)N(c3noc4cc(C)c(F)c(-c5c(F)cc(F)cc5F)c34)C[C@@H]2C1(F)F` [Example 162, N-{(6R,7aR)-7,7-difluoro-2-[5-fluoro-6-methyl-4-(2,4,6-trifluorophenyl)-1,2-benzoxazol-3-yl]-3-oxohexahydro-1H-pyrrolo[1,2-c]imidazol-6-yl}ethanesulfonamide], `CCS(=O)(=O)N[C@@H]1CN2C(=O)N(c3noc4cc(F)c(F)c(-c5c(F)cc(F)cc5F)c34)C[C@@H]2C1(F)F` [Example 172, N-{(6R,7aR)-2-[5,6-difluoro-4-(2,4,6-trifluorophenyl)-1,2-benzoxazol-3-yl]-7,7-difluoro-3-oxohexahydro-1H-pyrrolo[1,2-c]imidazol-6-yl}ethanesulfonamide] is lower in “OX2R agonist activity (3 uM, %)” value: 102% for the first, 98% for the second.

Going from `CCS(=O)(=O)N[C@@H]1Cn2c(cn(-c3noc4cc(C)c(F)c(-c5c(F)cc(F)cc5F)c34)c2=O)C1(F)F` [Example 163, N-{(6R)-7,7-difluoro-2-[5-fluoro-6-methyl-4-(2,4,6-trifluorophenyl)-1,2-benzoxazol-3-yl]-3-oxo-2,5,6,7-tetrahydro-3H-pyrrolo[1,2-c]imidazol-6-yl}ethanesulfonamide] to `Cc1cc2onc(-n3cc4n(c3=O)C[C@@H](NS(C)(=O)=O)C4(F)F)c2c(-c2c(F)cc(F)cc2F)c1F` [Example 184, N-{(6R)-7,7-difluoro-2-[5-fluoro-6-methyl-4-(2,4,6-trifluorophenyl)-1,2-benzoxazol-3-yl]-3-oxo-2,5,6,7-tetrahydro-3H-pyrrolo[1,2-c]imidazol-6-yl}methanesulfonamide], the “OX2R agonist activity (3 uM, %)” value falls from 103% to 101%.

Compared with `Cc1cc(-c2c(F)cccc2F)c2c(N3C[C@H]4N(C[C@@H](NS(C)(=O)=O)C4(F)F)C3=O)noc2n1` [Example 164, N-{(6R,7aR)-2-[4-(2,6-difluorophenyl)-6-methyl[1,2]oxazolo[5,4-b]pyridin-3-yl]-7,7-difluoro-3-oxohexahydro-1H-pyrrolo[1,2-c]imidazol-6-yl}methanesulfonamide], `CCS(=O)(=O)N[C@@H]1CN2C(=O)N(c3noc4nc(C)cc(-c5c(F)cc(F)cc5F)c34)C[C@@H]2C1(F)F` [Example 175, N-{(6R,7aR)-7,7-difluoro-2-[6-methyl-4-(2,4,6-trifluorophenyl)[1,2]oxazolo[5,4-b]pyridin-3-yl]-3-oxohexahydro-1H-pyrrolo[1,2-c]imidazol-6-yl}ethanesulfonamide] is lower in “OX2R agonist activity (3 uM, %)” value: 108% for the first, 98% for the second.

First: CCS(=O)(=O)N[C@@H]1Cn2c(cn(-c3noc4cc(COC)cc(-c5c(F)cc(F)cc5F)c34)c2=O)C1(F)F [Example 166, N-{(6R)-7,7-difluoro-2-[6-(methoxymethyl)-4-(2,4,6-trifluorophenyl)-1,2-benzoxazol-3-yl]-3-oxo-2,5,6,7-tetrahydro-3H-pyrrolo[1,2-c]imidazol-6-yl}ethanesulfonamide]
Second: CCS(=O)(=O)N[C@@H]1Cn2c(cn(-c3noc4cc(COC)cc(-c5c(F)cccc5F)c34)c2=O)C1(F)F [Example 167, N-{(6R)-2-[4-(2,6-difluorophenyl)-6-(methoxymethyl)-1,2-benzoxazol-3-yl]-7,7-difluoro-3-oxo-2,5,6,7-tetrahydro-3H-pyrrolo[1,2-c]imidazol-6-yl}ethanesulfonamide]
The “OX2R agonist activity (3 uM, %)” value of the first is lower: 92% for the first, 97% for the second.

Compared with `CCS(=O)(=O)N[C@@H]1CN2C(=O)N(c3noc4cc(F)c(F)c(-c5c(F)cccc5F)c34)C[C@@H]2C1(F)F` [Example 168, N-{(6R,7aR)-2-[4-(2,6-difluorophenyl)-5,6-difluoro-1,2-benzoxazol-3-yl]-7,7-difluoro-3-oxohexahydro-1H-pyrrolo[1,2-c]imidazol-6-yl}ethanesulfonamide], `CCS(=O)(=O)N[C@@H]1Cn2c(cn(-c3noc4cc(F)c(F)c(-c5c(F)cccc5F)c34)c2=O)C1(F)F` [Example 170, N-{(6R)-2-[4-(2,6-difluorophenyl)-5,6-difluoro-1,2-benzoxazol-3-yl]-7,7-difluoro-3-oxo-2,5,6,7-tetrahydro-3H-pyrrolo[1,2-c]imidazol-6-yl}ethanesulfonamide] is lower in “OX2R agonist activity (3 uM, %)” value: 102% for the first, 94% for the second.

Compared with `CCS(=O)(=O)N[C@@H]1Cn2c(cn(-c3noc4cc(C)c(F)c(-c5c(F)cccc5F)c34)c2=O)C1(F)F` [Example 169, N-{(6R)-2-[4-(2,6-difluorophenyl)-5-fluoro-6-methyl-1,2-benzoxazol-3-yl]-7,7-difluoro-3-oxo-2,5,6,7-tetrahydro-3H-pyrrolo[1,2-c]imidazol-6-yl}ethanesulfonamide], `CCS(=O)(=O)N[C@@H]1Cn2c(cn(-c3noc4cc(OC(F)F)cc(-c5c(F)cc(F)cc5F)c34)c2=O)C1(F)F` [Example 179, N-{(6R)-2-[6-(difluoromethoxy)-4-(2,4,6-trifluorophenyl)-1,2-benzoxazol-3-yl]-7,7-difluoro-3-oxo-2,5,6,7-tetrahydro-3H-pyrrolo[1,2-c]imidazol-6-yl}ethanesulfonamide] is higher in “OX2R agonist activity (3 uM, %)” value: 103% for the first, 109% for the second.

Going from `Cc1cc(-c2c(F)cc(F)cc2F)c2c(-n3cc4n(c3=O)C[C@@H](NS(C)(=O)=O)C4(F)F)noc2n1` [Example 174, N-{(6R)-7,7-Difluoro-2-[6-methyl-4-(2,4,6-trifluorophenyl) [1,2]oxazolo [5,4-b]pyridin-3-yl]-3-oxo-2,5,6,7-tetrahydro-3H-pyrrolo[1,2-c]imidazol-6-yl}methanesulfonamide] to `CS(=O)(=O)N[C@@H]1Cn2c(cn(-c3noc4cc(OC(F)(F)F)cc(-c5c(F)cc(F)cc5F)c34)c2=O)C1(F)F` [Example 176, N-{(6R)-7,7-difluoro-3-oxo-2-[6-(trifluoromethoxy)-4-(2,4,6-trifluorophenyl)-1,2-benzoxazol-3-yl]-2,5,6,7-tetrahydro-3H-pyrrolo[1,2-c]imidazol-6-yl}methanesulfonamide], the “OX2R agonist activity (3 uM, %)” value falls from 95% to 89%.

Compared with `CCS(=O)(=O)N[C@H]1C[C@H]2CN(c3cnc4cccc(-c5c(F)cccc5F)n34)C(=O)N2C1` [Example 182, N-{(6S,7aS)-2-[5-(2,6-difluorophenyl)imidazo[1,2-a]pyridin-3-yl]-3-oxohexahydro-1H-pyrrolo[1,2-c]imidazol-6-yl}ethanesulfonamide], `CS(=O)(=O)N[C@@H]1Cn2c(cn(-c3noc4cc(CO)c(F)c(-c5c(F)cc(F)cc5F)c34)c2=O)C1(F)F` [Example 185, N-{(6R)-7,7-difluoro-2-[5-fluoro-6-(hydroxymethyl)-4-(2,4,6-trifluorophenyl)-1,2-benzoxazol-3-yl]-3-oxo-2,5,6,7-tetrahydro-3H-pyrrolo[1,2-c]imidazol-6-yl}methanesulfonamide] is higher in “OX2R agonist activity (3 uM, %)” value: 84% for the first, 104% for the second.
